Data on one compound can be found in US20040024027A1 (priority 2000, published 2004).

This data set is described as follows: Exposure to 75% Relative Humidity atmosphere (re-weighing and infrared spectrum). It is filed as physicochemical. The conditions noted are these: sealed container, 75% Relative Humidity (saturated sodium chloride solution), 21° C., 96 hours. The source says: The sample was re-weighed and the infrared spectrum of the product recorded.

As for `CN(CCOc1ccc(CC2SC(=O)NC2=O)cc1)c1ccccn1.I` (centres unmarked) [Hydriodide, 5-[4-[2-(N-Methyl-N-(2-pyridyl)amino)ethoxy]benzyl]thiazolidine-2,4-dione Hydriodide], the “Infrared spectrum after humidity exposure” value was “no change” and the “Sample weight after humidity exposure” value is “no weight gain”.
